Experimental data published in US4000293A, “Method of inhibiting bacterial growth with certain selected 3-chloro-2-oxazolidinones” (Interx Research Corporation, priority 1975, dated 1976).

Tests used:
[1] = system: Staphylococcus aureus ATCC 6538; experiment: germicidal efficiency test (modified serial dilution; time to complete sterilization), Table A; assay type: cell-based; settings: 473 ppm +Cl, pH 7.0
Method: The compounds are thus useful as bactericidal agents.
(§1) The compounds of the invention and certain reference compounds were tested in the germidical efficiency test, a modification of the standard serial dilution test, against Staphylococcus aureus ATCC 6538. In the germicidal efficiency test, instead of determining the minimum inhibitory concentration as in the serial dilution test procedure, the time required to effect complete sterilization of the micro-organism when exposed to a given concentration of the test substance is determined. This procedure affords a basis of comparison of the time dependent efficacies of the various test substances which gives a measure not only of the germidical efficacy of the test species but, since as will be seen germicidal efficiency of the N-chloro compounds generally tends to diminish with time, apparently owing to decomposition of, and therefore dilution of, the active species, the test procedure also provides an indication of the efficacy to be expected at varying time intervals after solution of the test species in the application medium. The test procedure is described as follows: A stock solution of known concentration of each compound to be tested was prepared in 0.1M sodium dihydrogen phosphate buffered to pH 7.0. To 5 ml. of the test solution was added 0.2 ml. of an overnight broth culture containing from 6×10^6 to 8×10^6 organisms/ml. of Staphylococcus aureus ATCC 6538 and 5 g. of gelysate peptone and 3 g. of beef extract per 1000 ml. of water. At time intervals of 0.5, 1, 2, 3, 4, 5, 6, 7, 8, 9, 10, 15 and 30 minutes, a loop of this suspension was subcultured into 5 ml. of sterile nutrient broth (5 g. of gelysate peptone and 3 g. of beef extract/1000 ml. of water), and the samples were incubated at 37° C. for 7 days with daily observation for evidence of bacterial growth. The time interval in which no bacterial growth was observed after the incubation period in a particular sample was recorded as the end point.
(§2) The germicidal kill times so-obtained at various concentrations of the compounds of the invention and of certain reference compounds are given in Table A below. The compounds are identified in each case by the Example number above where the compounds are described. Here and elsewhere in the specification that follows, concentrations are expressed in parts per million (ppm) of "positive" chlorine, which was determined in each instance by addition of excess aqueous potassium iodide to an acidified solution of the test compound and titration of the iodine liberated with standard sodium thiosulfate solution.

[2] = system: Staphylococcus aureus ATCC 6538; experiment: contact germicidal (bactericidal) time before and after 14 day incubation of solutions at 40° C., Table B; assay type: cell-based; settings: pH 7.0
Method: as §1
(§3) The stabilities and the time-dependent efficacies of the claimed and reference species were determined by comparing the contact germicidal times and the initial and final concentrations of positive chlorine in solutions of the test species in 0.1M sodium dihydrogen phosphate buffered to pH 7.0 before and after 14 day incubation of the solutions at 40° C. The results are given in Table B below, where the columns headed "Bc Time" refers to the bactericidal time in minutes.

[3] = positive chlorine concentration before and after 14 day incubation of solutions at pH 7.0, 40° C., Table B; assay type: physicochemical
Method: as §2, §3

[4] = hydrolytic stability in 0.1M sodium dihydrogen phosphate pH 7.0 at 40° (first-order kinetics), Table C; assay type: physicochemical
Method: A further measure of the relative stabilities of the reference and claimed species was obtained by measuring the hydrolytic stability of the various species in 0.1M sodium dihydrogen phosphate buffered to pH 7.0 at 40°. For each species, the rate of change in the concentration of positive chlorine in the solution was measured by the volume of standard thiosulfate required to titrate a series of aliquots of a standard volume of the solution at various time intervals using potassium iodide/sodium thiosulfate as detailed above. The volumes of thiosulfate required to titrate each sample so obtained were interpreted as first-order kinetic processes. The hydrolytic stabilities of the reference and claimed species under the experimental conditions were characterized by the reaction rate constants and half-lives obtained from a linear regression analysis of the experimental data. The results obtained are given in Table C below and are also shown in FIG. 1 where the volumes in milliliters of standard thiosulfate required to titrate the positive chlorine in the various samples are plotted as ordinate against time in days as abscissa.

[5] = stability in the neat state (% chlorine by iodometric titration), Table D; assay type: physicochemical; settings: 40° C.
Method: In those instances, the data were acquired at ambient temperature (approximately 23° C.). The method used was similar to that described above in which the rate of disappearance of "positive" chlorine was followed iodometrically by titration of iodine liberated from added potassium iodide with standard sodium thiosulfate solution. Samples of the compounds were individually sealed in ampoules and stored in the dark at 23° C. or 40° C. and weighed amounts removed from time to time for analysis.
For each of the compounds analyzed as indicated above, percent chlorine was plotted as ordinate against time in days as abscissa on semi-logarithmic paper and the points connected by a smooth curve for each compound.

Q: Which “Bactericidal Time” value [1] does the source give for `CC1(C)CN(Cl)C(=O)O1` [Example 1G, 3-Chloro-5,5-dimethyl-2-oxazolidinone] here?
A: 7 min

Q: And the “bactericidal activity after the test period (in words)” value ([2]; after 14 days at 40° C.)?
A: retained a good measure of bactericidal activity superior to each of the reference species

Q: What about the “Bc Time, initial” value ([2]; before incubation, at initial ppm +Cl of the same line) of the same compound?
A: 7 min

Q: What about the “decomposition over the test period (in words)” value ([3]; 14 days, 40° C., pH 7.0) of the same compound?
A: substantially decomposed over the test period

Q: What about the “Final Concn. of positive chlorine” value ([3]; after 14 day incubation at 40° C., 0.1M phosphate pH 7.0) of the same compound?
A: 43 ppm +Cl

Q: What about the “Initial Concn. of positive chlorine” value ([3]; before incubation, 0.1M phosphate pH 7.0) of the same compound?
A: 473 ppm +Cl

Q: And the half-life ([4]; 0.1m phosphate buffer, hydrolysis, 0.1M phosphate pH 7.0, 40°)?
A: 86.6 h

Q: What about the “Rate Constant k” value ([4]; hydrolysis, first-order, 0.1M phosphate pH 7.0, 40°) of the same compound?
A: 0.008 h⁻¹

Q: What about the “half-life relative to the half-lives of the reference species” value ([4]; hydrolysis, pH 7.0, 40°) of the same compound?
A: around twice to eight times as great

Q: And the “hydrolytic stability (in words)” value ([4]; pH 7.0, 40°)?
A: somewhat less stable than the corresponding 4,4-dimethyl compound

Q: And the “% Cl, neat” value ([5]; 0 Days)?
A: 19.6%

Q: And the “% Cl, neat” value ([5]; 1 Day)?
A: 22.1%

Q: What about the “% Cl, neat” value ([5]; 4 Days) of the same compound?
A: 23.7%

Q: What about the “% Cl, neat” value ([5]; 7 Days) of the same compound?
A: 16.5%

Q: What about the “% Cl, neat” value ([5]; 11 Days) of the same compound?
A: 18.1%

Q: And the “% Cl, neat” value ([5]; 15 Days)?
A: 14.4%

Q: What about the “% Cl, neat” value ([5]; 19 Days) of the same compound?
A: 10.0%

Q: What about the “% Cl, neat” value ([5]; 22 Days) of the same compound?
A: 0%

Q: What about the “stability in the neat state (in words)” value ([5]; neat) of the same compound?
A: surprising stability
